Assay results from patent US10758522B2, “Small molecule analogs of the nemo binding peptide” (THE SCRIPPS RESEARCH INSTITUTE, priority 2015, dated 2020).
“Also recorded” adds a separate entry of the source.

Experiments:
[1] = tested on: NF-κB; test: EMSA of NF-κB DNA binding in skeletal muscle of mdx mice after acute treatment; type: in vivo, mouse; conditions: single ip injection at 10 mg/kg, 1 and 2 hours post-treatment
Method: We also tested the compounds for their ability to inhibit NF-κB activity acutely in a murine model of disease. For these experiments, a mouse model of Duchenne muscular dystrophy, which has elevated NF-κB activity in muscle, was treated with Zinc-13 (NBDA-1) and Zinc-5 (NBDA-2) and the level of NF-κB activity determined by gel shift analysis at 1 and 2 hours post-treatment.
To confirm that the NBD mimetics reduce IKK activity, the extent of phosphorylation of the IKK target, IκBα, in response to 10 ng/ml of TNF-α was determined by Western blot at 0, 5 and 10 min after TNF-α stimulation. […] To determine if the mimetics also reduce NF-κB DNA binding activity, electrophoretic mobility shift assay (EMSA) was conducted both in vivo and in vitro.
Cytoplasmic and nuclear fractions were extracted using the NE-PER nuclear and cytoplasmic extraction reagents (ThermoFisher) according to the manufacturer's instructions. The gel shift assay was performed by following the previously described method (41). In brief, 5 μg of nuclear extract was incubated with gel shift binding buffer and an α-^32P-deoxycytodine triphosphate-radiolabeled NF-κB probe for 20 min at room temperature (MP Biomedicals). The oligonucleotide sequences are as follows: NF-κB template, 5′-[…]-3′; NF-κB annealing, 5′-[…]-3′. The reaction product was separated on a 6% non-denaturing polyacrylamide gel.

[2] = molecular target: T1, IKK complex (IKKß, IKKα and NEMO) (Homo sapiens, UniProt Q9Y6K9); test: Co-immunoprecipitation of NEMO with IKKß in 293 cells; type: cell-based; conditions: Zinc-5 at 4 hours, Zinc-13 at 1 hour, NBD peptide at 4 hours
T1 construct: analyzed by Western blot for the level of co-precipitated NEMO; endogenous in cells; host or cells: 293 (HEK293) cells
T1 sequence (Q9Y6K9 whole entry, one chain of several): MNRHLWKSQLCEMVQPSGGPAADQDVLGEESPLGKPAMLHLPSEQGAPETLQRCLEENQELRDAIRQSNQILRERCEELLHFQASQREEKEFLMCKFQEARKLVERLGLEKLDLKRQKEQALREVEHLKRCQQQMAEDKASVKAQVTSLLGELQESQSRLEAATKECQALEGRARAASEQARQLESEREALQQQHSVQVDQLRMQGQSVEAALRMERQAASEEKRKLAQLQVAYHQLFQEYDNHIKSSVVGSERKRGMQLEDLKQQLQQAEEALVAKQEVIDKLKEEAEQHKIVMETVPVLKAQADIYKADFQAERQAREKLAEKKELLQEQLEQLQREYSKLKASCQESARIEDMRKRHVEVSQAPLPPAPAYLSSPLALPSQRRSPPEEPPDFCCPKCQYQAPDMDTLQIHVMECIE
Description: FIG. 8 is a bar graph showing the inhibition of TNFα by NBDA-1 (Zinc-13). […] In addition, we have examined the ability of the compounds to disrupt the IKK complex, comprised of IKKß, IKKα and NEMO.
A non-functional, related compound Zinc-7 had no effect.

[3] = Degradation in the presence of serum; type: in vitro ADME; conditions: data not shown
[4] = tested on: Ercc1−/Δ mice; test: Systemic treatment of Ercc1−/Δ mice, intervertebral disc proteoglycan; type: in vivo, mouse; conditions: IP 3× a week, 10 mg/kg for 8 weeks
Method: The ability of the compounds to work systemically was also tested. In these experiments, Ercc1^−/Δ mice with accelerated aging (lifespan of 5 months) were treated systemically, 3× a week, by IP injection at a dose of 10 mg/kg for 8 weeks. Since we previously had shown that the NF-κB is a key factor in driving intervertebral disc degenerated, we assessed the effects of treatment on proteoglycan synthesis and content in the discus following treatment.

[5] = tested on: NF-κB target genes; test: qRT-PCR of NF-κB target genes in LPS-stimulated Raw 264.7 cells; type: cell-based, mouse; conditions: Raw 264.7, 1 ug/ml LPS 2 hr; mimetics 50 μM, IKKi VII 2 μM, 8K-NBD 400 μM
Method: Effect of the NBD mimetics on expression of NF-kB regulated genes in the Raw mouse macrophage cell line. Treatment of the Raw cells with the indicated drugs prior to addition of LPS reduced NF-kB-mediated gene expression as measured by RT-PCR.
To determine whether the inhibitory effect of the mimetics is TNF-α-dependent, LPS-mediated NF-κB activation via TLR4 was examined to determine a broader inhibitory effect of the novel NBD mimetics. NF-κB was stimulated in Raw 264.7 by 1 ug/ml of LPS for 2 hr and genes transcriptionally regulated by NF-κB were determined by qRT-PCR analysis. Both an IKK active site inhibitor IKKi VII (2 μM) and the 8K-NBD peptide (400 μM) were included as positive controls and the expression of COX2, IL-6, IL-1β, TNF-α, IκBα and iNOS were assessed.
Raw 264.7 cells were treated with a 50 μM solution of the SR compound for 30 minutes, and then the mRNA was harvested 2 hours after addition of 1 μg/mL LPS.
(§1) Snap frozen tissues were preserved in RNAlater RNA stabilization solution (ThermoFisher) before processed. Total RNA was extracted from cells or tissues using TRIZOL reagent (Life Technologies) and 1500 ng of messenger RNA (mRNA) was subjected to synthesize complementary DNA (cDNA) using SuperScript VILO cDNA synthesis kit. qRT-PCR was performed in a StepOnePlus Real-Time PCR system using Platinum SYBR Green qPCR SuperMix-UDG (ThermoFisher). Target gene expression was calculated using the comparative CT method (ΔΔCT) and normalized to an internal control gene Actb (β-actin). Primers used are as follows: Ptgs2 (COX-2) forward: […]; Ptgs2 (COX-2) reverse: […]; Nfkbia (IκBα) forward: […]; Nfkbia (IκBα) reverse: […]; Il1b (IL-1β) forward: […]; Il1b (IL-1β) reverse: […]; Nos2 (iNOS) forward: […]; Nos2 (iNOS) reverse: […]; Tnf (TNF) forward: […]; Tnf (TNF) reverse: […]; Il6 (IL-6) forward: […]; Il6 (IL-6) reverse: […]. Actb (β-actin) forward: […]; Actb (β-actin) reverse: […];

[6] = tested on: NF-κB target genes; test: LPS-induced systemic endotoxemia / acute lung inflammation, qRT-PCR of NF-κB target genes; type: in vivo, mice; conditions: 10 mg/kg
Method: SR12343 and SR12460 initially were tested in an acute model of LPS-induced systemic endotoxemia to determine their NF-κB inhibitory effects in vivo. C57BL/6J mice were pretreated with vehicle control, 8K-NBD peptide or NBD mimetics at 10 mg/kg for 30 min, followed by LPS induction at 10 mg/kg. Lung and liver were harvested 2-4 hr post-treatment for qRT-PCR analysis of NF-κB target genes.
LPS (strain O111:B4) was prepared in PBS at a sub-lethal dose of 10 mg/kg. 8-10 weeks old female WT mice (20-30 g) were dosed i.p. with vehicle, NBD peptide (10 mg/kg) or small molecules (10 mg/kg) for 30 min and followed by i.p. injection of saline (1 ml/kg) or LPS (10 mg/kg). Mice were euthanized 2-4 hr post-treatment and lung was collected for further analysis.
as §1

[7] = tested on: Ercc1−/Δ mice; test: Chronic treatment of Ercc1−/Δ mouse model of accelerated aging with SR12343; type: in vivo
Description: FIG. 41 summarizes the regimen and endpoints for the study of the effects of NBD mimetics on aging using the Ercc1^−/Δ mouse model of accelerated aging
Thus these novel NBD mimetics could be used not only for treatment of inflammatory and degenerative diseases, but also aging.

SMILES	NF-κB DNA binding activity in quadriceps of mdx mice ([1]; listed as Zinc-13, 10 mg/kg)	NF-κB DNA binding activity in quadriceps of mdx mice ([1]; listed as compound 12909780, 10 mg/kg)	level of NEMO co-immunoprecipitated with IKKß [2]	degradation in the presence of serum [3]	proteoglycan synthesis and content in the intervertebral disc [4]	transcription of NF-κB target genes (COX2, IL-6, IL-1β, TNF-α, IκBα, iNOS) [5]	NF-κB target gene expression in lung (iNOS, IκBα, COX2, IL-6) ([6]; 30 min before LPS 10 mg/kg, 2-4 hr)	NF-κB target gene expression in liver ([6]; LPS 10 mg/kg)	TNF-α expression in lung ([6]; LPS 10 mg/kg)	glycosaminoglycan (GAG) in intervertebral disc nucleus pulposus [7]	healthspan [7]	clearance of blood glucose (oral glucose tolerance test) ([7]; 15 wk-old mice)	senescence ([7]; 15 wk-old mice)	aging symptoms associated with frailty ([7]; different ages)	overall score of the aging symptoms ([7]; different ages)	body fat percentage (NMR) ([7]; male mice)	forelimb grip strength ([7]; male mice)	inhibition of NF-κB/IKK in liver and lung ([6]; LPS 10 mg/kg)
Nc1ncccc1C(=O)OCC(=O)Nc1ccc(Cl)cc1F [NBDA-1, 2-((4-chloro-2-fluorophenyl)amino)-2-oxoethyl 2-aminonicotinate]	reduced NF-κB DNA binding activity in the skeletal muscle (quadricep)	inhibited NF-κB DNA binding activity in quadriceps	reduced the level of co-immunoprecipitated NEMO; also recorded: disrupt the interaction between IKKß and IKKgamma	rapid degradation in the presence of serum	increased the proteoglycan content	–	–	–	–	–	–	–	–	–	–	–	–	–
O=C(CNc1ccc(Cl)cn1)NCCc1cccc(Br)c1 [SR12343, N-(3-bromophenethyl)-2-((5-chloropyridin-2-yl)amino)acetamide]	–	–	–	–	–	significant inhibition on COX2, IL-6 and iNOS expression	downregulate NF-κB transcriptional activity significantly in lung	inhibiting only COX2 expression significantly	unchanged	improves pathology in the intervertebral disc as determined by measuring proteoglycans (GAG)	extension of healthspan	improves clearance of glucose in an oral glucose tolerance test	reduces senescence	reduces the onset of symptoms associated with frailty	reduces the onset of symptoms with chronic treatment	reduces loss of fat in male mice	improves grip strength in male mice	–
O=C(CNCCc1cc(F)cc(F)c1)Nc1ccc(Cl)cn1 [SR12460, N-(5-chloropyridin-2-yl)-2-((3,5-difluorophenethyl)amino)acetamide]	–	–	–	–	–	significantly downregulate the transcription of all NF-κB target genes tested	–	–	–	–	–	–	–	–	–	–	–	less potent compared to SR12343
